{"source": "ChEMBL document CHEMBL5046315", "about": "“CRCM5484: A BET-BDII Selective Compound with Differential Anti-leukemic Drug Modulation” (J Med Chem, 2022)", "key": {"[1]": {"molecular_target": "T1, Bromodomain-containing protein 3 (Homo sapiens, UniProt Q15059)", "T1 sequence (Q15059 whole entry)": "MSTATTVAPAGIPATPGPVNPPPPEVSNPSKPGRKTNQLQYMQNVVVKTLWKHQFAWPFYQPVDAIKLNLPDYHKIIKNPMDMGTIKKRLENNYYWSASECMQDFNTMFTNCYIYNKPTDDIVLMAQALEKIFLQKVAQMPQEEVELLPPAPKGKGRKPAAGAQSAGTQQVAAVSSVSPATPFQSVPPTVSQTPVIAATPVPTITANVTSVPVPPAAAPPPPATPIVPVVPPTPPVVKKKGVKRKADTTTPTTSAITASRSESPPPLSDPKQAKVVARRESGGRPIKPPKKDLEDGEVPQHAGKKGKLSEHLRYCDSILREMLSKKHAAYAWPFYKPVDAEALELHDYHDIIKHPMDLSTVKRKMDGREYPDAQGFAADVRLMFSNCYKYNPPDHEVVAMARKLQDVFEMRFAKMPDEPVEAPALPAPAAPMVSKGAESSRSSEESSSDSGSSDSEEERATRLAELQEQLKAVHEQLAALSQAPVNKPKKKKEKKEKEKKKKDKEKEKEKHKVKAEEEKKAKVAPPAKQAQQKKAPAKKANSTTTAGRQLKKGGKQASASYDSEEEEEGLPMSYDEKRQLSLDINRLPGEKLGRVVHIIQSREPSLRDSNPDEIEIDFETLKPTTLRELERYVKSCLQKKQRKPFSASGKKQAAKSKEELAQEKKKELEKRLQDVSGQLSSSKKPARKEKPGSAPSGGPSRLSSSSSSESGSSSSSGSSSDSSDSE", "assay": "Inhibition of BRD3-BD2 (unknown origin) incubated for 6 hrs by HTRF method"}, "[2]": {"molecular_target": "T1, Bromodomain-containing protein 3", "assay": "Inhibition of BRD3-BD1 domain (unknown origin) incubated for 6 hrs by HTRF method"}, "NB-4": {"system": "NB-4", "assay": "Cytotoxicity against human NB-4 cells assessed as reduction in cell viability incubated for 72 hrs", "format": "functional, cell-based", "settings": "NB-4, 72 h"}, "K562": {"system": "K562", "assay": "Inhibition of IFNgamma induced MHC-1 expression in human K562 cells treated for 48 hrs by flow cytometric analysis", "format": "functional, cell-based", "settings": "dose 0.2-20 µM"}, "[3]": {"system": "Acute myeloid leukemic cell", "assay": "Potentiation of vorinostat-induced antileukemic activity against patient derived mouse xenografted acute myeloid leukemic cells assessed as cell viability at 0.16 to 10 uM in presence of bone-marrow derived stromal cell-conditioned medium measured after 72 to 144 hrs by cell-titre glo luminescent assay", "format": "functional, cell-based", "settings": "Homo sapiens, dose 0.16-10 µM, time lower […], time upper 144.0 hrs"}, "CCRF-CEM [4]": {"system": "CCRF-CEM", "assay": "Potentiation of 17AAG-induced antileukemic activity against human CCRF-CEM cells at 4.3 uM in presence of bone-marrow derived stromal cell-conditioned medium", "format": "functional, cell-based"}, "CCRF-CEM [5]": {"system": "CCRF-CEM", "assay": "Potentiation of AGI-5198-induced antileukemic activity against human CCRF-CEM cells at 4.3 uM in presence of bone-marrow derived stromal cell-conditioned medium", "format": "functional, cell-based"}, "CCRF-CEM [6]": {"system": "CCRF-CEM", "assay": "Potentiation of asparaginase-induced antileukemic activity against human CCRF-CEM cells at 4.3 uM in presence of bone-marrow derived stromal cell-conditioned medium", "format": "functional, cell-based"}, "CCRF-CEM [7]": {"system": "CCRF-CEM", "assay": "Potentiation of birinapant-induced antileukemic activity against human CCRF-CEM cells at 4.3 uM in presence of bone-marrow derived stromal cell-conditioned medium", "format": "functional, cell-based"}, "CCRF-CEM [8]": {"system": "CCRF-CEM", "assay": "Potentiation of cyclopamine-induced antileukemic activity against human CCRF-CEM cells at 4.3 uM in presence of bone-marrow derived stromal cell-conditioned medium", "format": "functional, cell-based"}, "CCRF-CEM [9]": {"system": "CCRF-CEM", "assay": "Potentiation of everolimus-induced antileukemic activity against human CCRF-CEM cells at 4.3 uM in presence of bone-marrow derived stromal cell-conditioned medium", "format": "functional, cell-based"}, "CCRF-CEM [10]": {"system": "CCRF-CEM", "assay": "Potentiation of idarubicin-induced antileukemic activity against human CCRF-CEM cells at 4.3 uM in presence of bone-marrow derived stromal cell-conditioned medium", "format": "functional, cell-based"}, "CCRF-CEM [11]": {"system": "CCRF-CEM", "assay": "Potentiation of lapatinib-induced antileukemic activity against human CCRF-CEM cells at 4.3 uM in presence of bone-marrow derived stromal cell-conditioned medium", "format": "functional, cell-based"}, "CCRF-CEM [12]": {"system": "CCRF-CEM", "assay": "Potentiation of sorafenib-induced antileukemic activity against human CCRF-CEM cells at 4.3 uM in presence of bone-marrow derived stromal cell-conditioned medium", "format": "functional, cell-based"}, "CCRF-CEM [13]": {"system": "CCRF-CEM", "assay": "Potentiation of topotecan-induced antileukemic activity against human CCRF-CEM cells at 4.3 uM in presence of bone-marrow derived stromal cell-conditioned medium", "format": "functional, cell-based"}, "U-937 [14]": {"system": "U-937", "assay": "Potentiation of asparaginase-induced antileukemic activity against human U-937 cells at 4.3 uM in presence of bone-marrow derived stromal cell-conditioned medium", "format": "functional, cell-based"}, "U-937 [15]": {"system": "U-937", "assay": "Potentiation of BKM120-induced antileukemic activity against human U-937 cells at 4.3 uM in presence of bone-marrow derived stromal cell-conditioned medium", "format": "functional, cell-based"}, "U-937 [16]": {"system": "U-937", "assay": "Potentiation of bosutinib-induced antileukemic activity against human U-937 cells at 4.3 uM in presence of bone-marrow derived stromal cell-conditioned medium", "format": "functional, cell-based"}, "U-937 [17]": {"system": "U-937", "assay": "Potentiation of cladribine-induced antileukemic activity against human U-937 cells at 4.3 uM in presence of bone-marrow derived stromal cell-conditioned medium", "format": "functional, cell-based"}, "U-937 [18]": {"system": "U-937", "assay": "Potentiation of clofarabine-induced antileukemic activity against human U-937 cells at 4.3 uM in presence of bone-marrow derived stromal cell-conditioned medium", "format": "functional, cell-based"}, "U-937 [19]": {"system": "U-937", "assay": "Potentiation of cyclopamine-induced antileukemic activity against human U-937 cells at 4.3 uM in presence of bone-marrow derived stromal cell-conditioned medium", "format": "functional, cell-based"}, "U-937 [20]": {"system": "U-937", "assay": "Potentiation of idelalisib-induced antileukemic activity against human U-937 cells at 4.3 uM in presence of bone-marrow derived stromal cell-conditioned medium", "format": "functional, cell-based"}, "U-937 [21]": {"system": "U-937", "assay": "Potentiation of JQ1-induced antileukemic activity against human U-937 cells at 4.3 uM in presence of bone-marrow derived stromal cell-conditioned medium", "format": "functional, cell-based"}, "U-937 [22]": {"system": "U-937", "assay": "Potentiation of metformin -induced antileukemic activity against human U-937 cells at 4.3 uM in presence of bone-marrow derived stromal cell-conditioned medium", "format": "functional, cell-based"}, "U-937 [23]": {"system": "U-937", "assay": "Potentiation of niotinib-induced antileukemic activity against human U-937 cells at 4.3 uM in presence of bone-marrow derived stromal cell-conditioned medium", "format": "functional, cell-based"}, "U-937 [24]": {"system": "U-937", "assay": "Potentiation of quizartinib-induced antileukemic activity against human U-937 cells at 4.3 uM in presence of bone-marrow derived stromal cell-conditioned medium", "format": "functional, cell-based"}, "U-937 [25]": {"system": "U-937", "assay": "Potentiation of SGI-1027-induced antileukemic activity against human U-937 cells at 4.3 uM in presence of bone-marrow derived stromal cell-conditioned medium", "format": "functional, cell-based"}, "U-937 [26]": {"system": "U-937", "assay": "Potentiation of tipifarnib-induced antileukemic activity against human U-937 cells at 4.3 uM in presence of bone-marrow derived stromal cell-conditioned medium", "format": "functional, cell-based"}, "U-937 [27]": {"system": "U-937", "assay": "Potentiation of venetoclax-induced antileukemic activity against human U-937 cells at 4.3 uM in presence of bone-marrow derived stromal cell-conditioned medium", "format": "functional, cell-based"}, "MOLM-14 [28]": {"system": "MOLM-14", "assay": "Potentiation of AGI-5198-induced antileukemic activity against human MOLM-14 cells at 4.3 uM in presence of bone-marrow derived stromal cell-conditioned medium", "format": "functional, cell-based"}, "MOLM-14 [29]": {"system": "MOLM-14", "assay": "Potentiation of AraC-induced antileukemic activity against human MOLM-14 cells at 4.3 uM in presence of bone-marrow derived stromal cell-conditioned medium", "format": "functional, cell-based"}, "MOLM-14 [30]": {"system": "MOLM-14", "assay": "Potentiation of arsenic-induced antileukemic activity against human MOLM-14 cells at 4.3 uM in presence of bone-marrow derived stromal cell-conditioned medium", "format": "functional, cell-based"}, "MOLM-14 [31]": {"system": "MOLM-14", "assay": "Potentiation of AT9283-induced antileukemic activity against human MOLM-14 cells at 4.3 uM in presence of bone-marrow derived stromal cell-conditioned medium", "format": "functional, cell-based"}, "MOLM-14 [32]": {"system": "MOLM-14", "assay": "Potentiation of bosutinib-induced antileukemic activity against human MOLM-14 cells at 4.3 uM in presence of bone-marrow derived stromal cell-conditioned medium", "format": "functional, cell-based"}, "MOLM-14 [33]": {"system": "MOLM-14", "assay": "Potentiation of docetaxel-induced antileukemic activity against human MOLM-14 cells at 4.3 uM in presence of bone-marrow derived stromal cell-conditioned medium", "format": "functional, cell-based"}, "MOLM-14 [34]": {"system": "MOLM-14", "assay": "Potentiation of GSK126-induced antileukemic activity against human MOLM-14 cells at 4.3 uM in presence of bone-marrow derived stromal cell-conditioned medium", "format": "functional, cell-based"}, "MOLM-14 [35]": {"system": "MOLM-14", "assay": "Potentiation of seliciclib-induced antileukemic activity against human MOLM-14 cells at 4.3 uM in presence of bone-marrow derived stromal cell-conditioned medium", "format": "functional, cell-based"}, "MOLM-14 [36]": {"system": "MOLM-14", "assay": "Potentiation of temsirolimus-induced antileukemic activity against human MOLM-14 cells at 4.3 uM in presence of bone-marrow derived stromal cell-conditioned medium", "format": "functional, cell-based"}, "MOLM-14 [37]": {"system": "MOLM-14", "assay": "Potentiation of vermurafenib-induced antileukemic activity against human MOLM-14 cells at 4.3 uM in presence of bone-marrow derived stromal cell-conditioned medium", "format": "functional, cell-based"}, "MOLM-14 [38]": {"system": "MOLM-14", "assay": "Potentiation of vincristine-induced antileukemic activity against human MOLM-14 cells at 4.3 uM in presence of bone-marrow derived stromal cell-conditioned medium", "format": "functional, cell-based"}, "MOLM-14 [39]": {"system": "MOLM-14", "assay": "Potentiation of vorinostat-induced antileukemic activity against human MOLM-14 cells at 4.3 uM in presence of bone-marrow derived stromal cell-conditioned medium", "format": "functional, cell-based"}}, "note": "pEC50, pIC50: −log10 of the molar value. Calls of active or inactive are those of the source. No cut-off for these calls is given here."}
{"molecule": "CC(=O)N1CCc2c(sc3nc(SCC(=O)Nc4cccnc4C)n(Cc4ccco4)c(=O)c23)C1", "values": [{"measurement": "pIC50", "setting": "[1]", "result": 7.70}, {"measurement": "pIC50", "setting": "[2]", "result": 5.02}, {"measurement": "pEC50", "setting": "NB-4", "result": "< 5.30"}, {"measurement": "Activity", "setting": "K562", "result": "Dose-Dependent Effect"}, {"measurement": "Activity", "setting": "[3]", "result": "Active"}, {"measurement": "Activity", "setting": "CCRF-CEM [4]", "result": "inactive"}, {"measurement": "Activity", "setting": "CCRF-CEM [5]", "result": "inactive"}, {"measurement": "Activity", "setting": "CCRF-CEM [6]", "result": "inactive"}, {"measurement": "Activity", "setting": "CCRF-CEM [7]", "result": "inactive"}, {"measurement": "Activity", "setting": "CCRF-CEM [8]", "result": "inactive"}, {"measurement": "Activity", "setting": "CCRF-CEM [9]", "result": "inactive"}, {"measurement": "Activity", "setting": "CCRF-CEM [10]", "result": "inactive"}, {"measurement": "Activity", "setting": "CCRF-CEM [11]", "result": "inactive"}, {"measurement": "Activity", "setting": "CCRF-CEM [12]", "result": "inactive"}, {"measurement": "Activity", "setting": "CCRF-CEM [13]", "result": "inactive"}, {"measurement": "Activity", "setting": "U-937 [14]", "result": "inactive"}, {"measurement": "Activity", "setting": "U-937 [15]", "result": "inactive"}, {"measurement": "Activity", "setting": "U-937 [16]", "result": "inactive"}, {"measurement": "Activity", "setting": "U-937 [17]", "result": "inactive"}, {"measurement": "Activity", "setting": "U-937 [18]", "result": "inactive"}, {"measurement": "Activity", "setting": "U-937 [19]", "result": "inactive"}, {"measurement": "Activity", "setting": "U-937 [20]", "result": "inactive"}, {"measurement": "Activity", "setting": "U-937 [21]", "result": "inactive"}, {"measurement": "Activity", "setting": "U-937 [22]", "result": "inactive"}, {"measurement": "Activity", "setting": "U-937 [23]", "result": "inactive"}, {"measurement": "Activity", "setting": "U-937 [24]", "result": "inactive"}, {"measurement": "Activity", "setting": "U-937 [25]", "result": "inactive"}, {"measurement": "Activity", "setting": "U-937 [26]", "result": "inactive"}, {"measurement": "Activity", "setting": "U-937 [27]", "result": "inactive"}, {"measurement": "Activity", "setting": "MOLM-14 [28]", "result": "inactive"}, {"measurement": "Activity", "setting": "MOLM-14 [29]", "result": "inactive"}, {"measurement": "Activity", "setting": "MOLM-14 [30]", "result": "inactive"}, {"measurement": "Activity", "setting": "MOLM-14 [31]", "result": "inactive"}, {"measurement": "Activity", "setting": "MOLM-14 [32]", "result": "inactive"}, {"measurement": "Activity", "setting": "MOLM-14 [33]", "result": "inactive"}, {"measurement": "Activity", "setting": "MOLM-14 [34]", "result": "inactive"}, {"measurement": "Activity", "setting": "MOLM-14 [35]", "result": "inactive"}, {"measurement": "Activity", "setting": "MOLM-14 [36]", "result": "inactive"}, {"measurement": "Activity", "setting": "MOLM-14 [37]", "result": "inactive"}, {"measurement": "Activity", "setting": "MOLM-14 [38]", "result": "inactive"}, {"measurement": "Activity", "setting": "MOLM-14 [39]", "result": "inactive"}]}
